ChEMBL document CHEMBL1201862, “PubChem BioAssay data set” (2004)
The source made the active and inactive calls.

Legend:
[1] = target: T1, Oxysterols receptor LXR-beta (Homo sapiens, UniProt P55055); format: functional, cell-based
T1 sequence (P55055 whole entry): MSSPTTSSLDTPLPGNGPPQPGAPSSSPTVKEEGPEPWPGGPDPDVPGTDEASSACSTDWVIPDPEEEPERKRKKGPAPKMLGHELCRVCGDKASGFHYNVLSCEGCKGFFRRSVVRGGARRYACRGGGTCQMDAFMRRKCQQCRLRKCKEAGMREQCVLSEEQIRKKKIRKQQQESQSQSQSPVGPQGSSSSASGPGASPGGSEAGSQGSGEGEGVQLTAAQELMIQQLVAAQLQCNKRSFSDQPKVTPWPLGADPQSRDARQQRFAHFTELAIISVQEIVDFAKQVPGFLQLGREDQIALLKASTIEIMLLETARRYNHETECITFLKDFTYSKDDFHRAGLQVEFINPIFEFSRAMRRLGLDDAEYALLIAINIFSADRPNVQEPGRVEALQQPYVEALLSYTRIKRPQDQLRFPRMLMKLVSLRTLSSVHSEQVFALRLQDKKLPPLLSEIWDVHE

[2] = cells
[3] = A Cell Based Secondary Assay To Explore Cytotoxicity of Compounds that Sensitize Mycobacterium Tuberculosis to Beta-Lactam Antibiotics.; format: functional
[4] = target: Voltage-gated inwardly rectifying potassium channel KCNH2 (Homo sapiens, UniProt Q12809); assay: concentration-dependent hERG rescue from blockers – cell-based, thallium flux, dose response (AID 2121); format: ADME
Sequence of Voltage-gated inwardly rectifying potassium channel KCNH2 (Q12809 whole entry): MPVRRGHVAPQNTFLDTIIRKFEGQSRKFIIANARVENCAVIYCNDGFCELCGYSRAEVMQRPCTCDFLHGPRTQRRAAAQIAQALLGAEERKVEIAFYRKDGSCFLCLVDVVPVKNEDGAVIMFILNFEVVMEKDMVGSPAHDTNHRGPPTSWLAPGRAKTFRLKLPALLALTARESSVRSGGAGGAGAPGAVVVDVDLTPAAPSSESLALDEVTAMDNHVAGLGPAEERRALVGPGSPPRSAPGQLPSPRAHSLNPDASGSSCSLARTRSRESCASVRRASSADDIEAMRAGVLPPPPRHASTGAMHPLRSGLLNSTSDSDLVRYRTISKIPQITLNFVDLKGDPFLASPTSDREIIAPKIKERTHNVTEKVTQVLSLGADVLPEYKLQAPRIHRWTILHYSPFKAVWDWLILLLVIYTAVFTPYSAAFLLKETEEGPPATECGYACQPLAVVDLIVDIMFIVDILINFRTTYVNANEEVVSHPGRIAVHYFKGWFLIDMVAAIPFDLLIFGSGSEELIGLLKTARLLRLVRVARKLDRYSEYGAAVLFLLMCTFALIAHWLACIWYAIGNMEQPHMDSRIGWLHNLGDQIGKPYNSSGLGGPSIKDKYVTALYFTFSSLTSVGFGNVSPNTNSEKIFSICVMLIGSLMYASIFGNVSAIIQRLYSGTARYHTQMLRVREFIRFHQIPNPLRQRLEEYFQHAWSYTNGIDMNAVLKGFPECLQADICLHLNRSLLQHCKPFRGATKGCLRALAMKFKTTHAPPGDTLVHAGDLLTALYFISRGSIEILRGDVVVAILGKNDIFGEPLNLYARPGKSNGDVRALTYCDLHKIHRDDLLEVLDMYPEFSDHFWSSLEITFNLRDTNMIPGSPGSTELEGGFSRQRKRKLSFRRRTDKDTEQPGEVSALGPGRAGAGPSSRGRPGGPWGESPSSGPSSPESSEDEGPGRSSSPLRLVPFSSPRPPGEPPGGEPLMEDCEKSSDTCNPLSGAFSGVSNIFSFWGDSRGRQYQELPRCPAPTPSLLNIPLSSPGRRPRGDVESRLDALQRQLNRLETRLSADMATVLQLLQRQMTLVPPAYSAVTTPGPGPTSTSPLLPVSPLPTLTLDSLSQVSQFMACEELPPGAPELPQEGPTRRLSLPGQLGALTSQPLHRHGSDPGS

[5] = HPDE-C7 pancreatic duct cell viability loss – fluorescence, HTS (AID 430); format: functional, cell-based; details: Homo sapiens
[6] = target: FAD-linked sulfhydryl oxidase ALR (Homo sapiens, UniProt P55789); assay: ALR-catalysed DTT oxidation blockers – biochemical, H2O2 detection, luminescence, cherry-pick, dose response (AID 493248)
Sequence of FAD-linked sulfhydryl oxidase ALR (P55789 whole entry): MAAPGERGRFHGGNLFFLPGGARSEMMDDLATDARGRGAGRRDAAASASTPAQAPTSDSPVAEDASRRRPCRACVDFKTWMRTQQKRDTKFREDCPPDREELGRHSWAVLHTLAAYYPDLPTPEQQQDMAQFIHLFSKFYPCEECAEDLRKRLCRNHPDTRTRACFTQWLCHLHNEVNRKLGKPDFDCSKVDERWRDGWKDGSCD

[7] = viability loss of HPDE-C7K cells – cell-based, fluorescence, HTS, primary screen (AID 431); format: functional; details: Homo sapiens
[8] = target: Mitogen-activated protein kinase 10 (Homo sapiens, UniProt P53779); assay: Dose response biochemical screening assay for inhibitors of c-Jun N-Terminal Kinase 3 (JNK3). [Related pubchem assays: 746 ]
Sequence of Mitogen-activated protein kinase 10 (P53779 whole entry): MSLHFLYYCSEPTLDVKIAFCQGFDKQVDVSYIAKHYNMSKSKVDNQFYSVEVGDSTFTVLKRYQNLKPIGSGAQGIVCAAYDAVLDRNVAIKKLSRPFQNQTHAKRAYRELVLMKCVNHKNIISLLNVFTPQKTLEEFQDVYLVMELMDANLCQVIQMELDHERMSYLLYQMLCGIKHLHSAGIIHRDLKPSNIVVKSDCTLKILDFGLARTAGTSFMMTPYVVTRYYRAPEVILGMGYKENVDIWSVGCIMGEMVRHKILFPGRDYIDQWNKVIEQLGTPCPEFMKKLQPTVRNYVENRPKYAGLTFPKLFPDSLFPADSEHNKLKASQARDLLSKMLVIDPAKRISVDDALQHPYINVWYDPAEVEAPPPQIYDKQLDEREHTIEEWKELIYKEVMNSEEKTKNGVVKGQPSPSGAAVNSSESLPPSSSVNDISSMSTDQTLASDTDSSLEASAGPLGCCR

[9] = target: Heat shock protein HSP 90-alpha (Homo sapiens, UniProt P07900); format: functional, organism-based
[10] = cells; format: functional, cell-based
[11] = target: T1, Oxysterols receptor LXR-beta; format: functional, cell-based; remark: listed apart in the source
[12] = cells; format: functional, cell-based; remark: listed apart in the source
[13] = M. tuberculosis H37Rv growth inhibitors, H37Rv strain (AID 1626); format: functional
[14] = target: Prothrombin (Homo sapiens, UniProt P00734); assay: Thrombin 1536 HTS Dose Response Confirmation. [Related pubchem assays: 1046 (Thrombin 1536 HTS; hits were confirmed in this assay)]; format: functional
[15] = target: T2, Corticotropin-releasing factor receptor 2/Corticotropin-releasing factor-binding protein (Homo sapiens, UniProt P24387+Q13324); assay: activators of CRF receptor 2 with binding protein – uHTS hits, confirmation (AID 602473); format: functional; details: read-out: EC50_Mean
T2 sequence (Q13324 whole entry): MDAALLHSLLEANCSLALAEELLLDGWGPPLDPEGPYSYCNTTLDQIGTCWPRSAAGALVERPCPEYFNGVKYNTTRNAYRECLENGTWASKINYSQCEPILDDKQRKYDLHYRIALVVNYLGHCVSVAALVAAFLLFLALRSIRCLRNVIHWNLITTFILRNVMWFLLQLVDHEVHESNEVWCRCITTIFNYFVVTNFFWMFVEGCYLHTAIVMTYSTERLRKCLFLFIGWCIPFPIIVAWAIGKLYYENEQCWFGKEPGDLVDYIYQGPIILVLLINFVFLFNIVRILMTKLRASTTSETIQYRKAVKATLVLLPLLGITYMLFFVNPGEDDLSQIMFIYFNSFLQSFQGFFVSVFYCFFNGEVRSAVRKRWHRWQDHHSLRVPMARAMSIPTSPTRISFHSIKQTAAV
T2 sequence (P24387 whole entry): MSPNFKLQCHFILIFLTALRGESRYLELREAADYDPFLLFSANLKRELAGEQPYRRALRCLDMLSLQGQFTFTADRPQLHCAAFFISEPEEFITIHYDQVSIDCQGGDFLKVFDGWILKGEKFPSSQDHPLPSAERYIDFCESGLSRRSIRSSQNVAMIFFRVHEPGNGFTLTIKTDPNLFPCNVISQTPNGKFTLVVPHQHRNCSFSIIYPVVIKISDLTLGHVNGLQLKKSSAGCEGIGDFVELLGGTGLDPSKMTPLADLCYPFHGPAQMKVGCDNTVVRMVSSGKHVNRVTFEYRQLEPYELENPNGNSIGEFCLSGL

[16] = test system: Vero; assay: mammalian cell viability reduction – secondary assay, cytotoxicity control for West Nile virus antiviral project, dose response (AID 1650); format: functional; details: Chlorocebus sabaeus
[17] = target: T2, Corticotropin-releasing factor receptor 2/Corticotropin-releasing factor-binding protein; assay: Dose Response confirmation of uHTS hits for small molecule antagonists of the CRF-binding protein and CRF-R2 receptor complex.; format: functional; details: read-out: IC50_Mean
[18] = Luminescence-based cell-based high throughput dose response assay to identify activators of the DAF-12 from the parasite S. stercoralis (ssDAF-12).; format: functional
[19] = target: T1, Oxysterols receptor LXR-beta; assay: LXR agonists, Gal4 luciferase reporter, dose response, counter-screen for ssDAF-12 agonist project, cell-based, luminescence, HEK293, S. stercoralis campaign (AID 720737); format: functional; details: read-out: IC50 (the source's name)
[20] = target: Kallikrein-7 (Homo sapiens, UniProt P49862); assay: Fluorescence Intensity-based biochemical primary high throughput dose response assay to identify activators of kallikrein-7 (K7) zymogen.
Sequence of Kallikrein-7 (P49862 whole entry): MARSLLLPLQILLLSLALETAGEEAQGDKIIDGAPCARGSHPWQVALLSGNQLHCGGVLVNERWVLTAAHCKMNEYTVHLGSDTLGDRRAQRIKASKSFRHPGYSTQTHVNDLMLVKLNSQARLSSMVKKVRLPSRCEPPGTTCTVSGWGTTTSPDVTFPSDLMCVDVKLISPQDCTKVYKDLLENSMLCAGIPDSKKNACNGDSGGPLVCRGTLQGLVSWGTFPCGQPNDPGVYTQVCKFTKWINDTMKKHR

[21] = target: Luciferin 4-monooxygenase (Photinus pyralis, UniProt P08659); assay: Counter Screen for Luciferase-based Assay Positives. [Related pubchem assays: 620, 618, 411 ]
Sequence of Luciferin 4-monooxygenase (P08659 whole entry): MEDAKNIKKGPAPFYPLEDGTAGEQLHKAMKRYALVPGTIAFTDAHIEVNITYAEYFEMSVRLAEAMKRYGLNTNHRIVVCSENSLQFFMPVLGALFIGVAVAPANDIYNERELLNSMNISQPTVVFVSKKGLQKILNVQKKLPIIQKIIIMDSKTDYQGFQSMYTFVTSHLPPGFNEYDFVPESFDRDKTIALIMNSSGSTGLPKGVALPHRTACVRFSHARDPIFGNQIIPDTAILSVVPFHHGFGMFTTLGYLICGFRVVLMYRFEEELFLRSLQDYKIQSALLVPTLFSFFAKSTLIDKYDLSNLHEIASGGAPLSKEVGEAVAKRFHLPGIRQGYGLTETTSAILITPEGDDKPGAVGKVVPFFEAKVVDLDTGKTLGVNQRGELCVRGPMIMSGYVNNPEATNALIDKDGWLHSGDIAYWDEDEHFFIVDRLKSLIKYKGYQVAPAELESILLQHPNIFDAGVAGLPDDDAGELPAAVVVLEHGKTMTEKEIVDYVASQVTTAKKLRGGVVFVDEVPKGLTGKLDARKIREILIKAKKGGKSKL

[22] = test system: HT-1080; assay: HT1080 cell viability loss – fluorescence readout (AID 620); format: functional, cell-based; details: Homo sapiens
[23] = A2780 cell killing – plate reader, dry powder samples, cytotoxicity control, dose response (AID 743046); format: functional, cell-based
[24] = target: Paired box protein Pax-8 (Homo sapiens, UniProt Q06710); assay: PAX8 transcriptional activity inhibition in RMG-I – RMG-I cells, luciferase, cherry-pick, dose response (AID 687027); format: functional, cell-based;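 also: luciferase reporter driven by Pax8 target thyroperoxidase promoter measured by SteadyGlo luminescence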
Sequence of Paired box protein Pax-8 (Q06710 whole entry): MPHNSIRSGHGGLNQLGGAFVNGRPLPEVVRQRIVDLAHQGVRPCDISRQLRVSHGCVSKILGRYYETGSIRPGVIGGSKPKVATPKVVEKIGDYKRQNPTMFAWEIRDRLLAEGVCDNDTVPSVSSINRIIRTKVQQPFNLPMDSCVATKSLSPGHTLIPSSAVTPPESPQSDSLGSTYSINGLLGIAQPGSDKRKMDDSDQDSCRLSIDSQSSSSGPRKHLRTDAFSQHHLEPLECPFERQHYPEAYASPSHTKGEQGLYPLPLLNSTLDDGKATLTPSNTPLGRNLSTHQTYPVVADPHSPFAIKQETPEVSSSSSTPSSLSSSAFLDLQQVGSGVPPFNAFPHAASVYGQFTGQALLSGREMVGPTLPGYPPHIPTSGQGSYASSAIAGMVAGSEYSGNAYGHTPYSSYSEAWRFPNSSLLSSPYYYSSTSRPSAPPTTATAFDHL

[25] = OVCAR-3 cell viability loss – plate reader, dry powder samples, PAX8 inhibitor project, dose response (AID 743044); format: functional, cell-based
[26] = OVCAR8 cell viability loss – plate reader, dry powder samples, PAX8 project, dose response (AID 743197); format: functional, cell-based; details: OVCAR-8
[27] = test system: HeLa; assay: viability loss in HeLa cells – cell-based, ATP luminescence, cherry-pick samples, cytotoxicity control, dose response (AID 687004); format: functional; details: Homo sapiens
[28] = test system: HEK293; assay: viability loss in HEK293T cells – cell-based, ATP luminescence, cherry-pick samples, cytotoxicity control, dose response (AID 687005); format: functional; details: Homo sapiens;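 also: cells exposed to compound for 48 hours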
[29] = HEK293 Cytotoxicity Assay Measured in Cell-Based System Using Plate Reader - 7071-01_Inhibitor_Dose_CherryPick_Activity_Set2.; format: functional
[30] = Late-stage results from the probe development effort to identify antagonists of arginine vasopressin receptor 1a (AVPR1a): fluorescence-based cell-based dose response AVPR1a inhibition assay.; format: functional
[31] = Late-stage results from the probe development effort to identify antagonists of arginine vasopressin receptor 1a (AVPR1a): fluorescence-based cell-based dose response OXTR inhibition counterscreen assay.; format: functional
[32] = target: Vasopressin V2 receptor (Homo sapiens, UniProt P30518); assay: Late-stage results from the probe development effort to identify antagonists of arginine vasopressin receptor 1a (AVPR1a): fluorescence-based cell-based dose response AVPR2 inhibition counterscreen assay.; format: functional
Sequence of Vasopressin V2 receptor (P30518 whole entry): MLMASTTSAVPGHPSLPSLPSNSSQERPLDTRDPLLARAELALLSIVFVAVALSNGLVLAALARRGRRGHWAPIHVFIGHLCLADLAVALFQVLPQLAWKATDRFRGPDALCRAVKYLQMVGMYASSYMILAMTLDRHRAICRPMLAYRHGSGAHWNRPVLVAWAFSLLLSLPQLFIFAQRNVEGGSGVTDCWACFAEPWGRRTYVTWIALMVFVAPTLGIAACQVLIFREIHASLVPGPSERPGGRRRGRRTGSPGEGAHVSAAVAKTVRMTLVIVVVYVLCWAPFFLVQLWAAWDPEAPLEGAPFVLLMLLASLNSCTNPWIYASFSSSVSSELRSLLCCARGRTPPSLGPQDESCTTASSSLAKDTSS

[33] = target: Vasopressin V1b receptor (Homo sapiens, UniProt P47901); assay: Late-stage results from the probe development effort to identify antagonists of arginine vasopressin receptor 1a (AVPR1a): fluorescence-based cell-based dose response AVPR1b inhibition counterscreen assay.; format: functional
Sequence of Vasopressin V1b receptor (P47901 whole entry): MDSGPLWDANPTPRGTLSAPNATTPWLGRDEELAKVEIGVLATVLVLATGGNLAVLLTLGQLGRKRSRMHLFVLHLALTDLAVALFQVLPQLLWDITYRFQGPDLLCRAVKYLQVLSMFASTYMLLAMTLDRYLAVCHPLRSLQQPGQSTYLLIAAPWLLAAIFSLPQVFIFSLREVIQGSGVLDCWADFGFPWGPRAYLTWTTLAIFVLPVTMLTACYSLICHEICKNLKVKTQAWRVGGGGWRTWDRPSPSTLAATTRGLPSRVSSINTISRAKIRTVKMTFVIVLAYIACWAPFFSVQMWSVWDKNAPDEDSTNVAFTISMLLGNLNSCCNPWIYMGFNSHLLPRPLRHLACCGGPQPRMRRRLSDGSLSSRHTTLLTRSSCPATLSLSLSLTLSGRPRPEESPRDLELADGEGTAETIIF

[34] = MITF Orthogonal Assay: SK-MEL-5 CTG Assay Measured in Cell-Based System Using Plate Reader - 2084-02_Inhibitor_Dose_DryPowder_Activity_Set7.; format: functional
[35] = inhibitors of TRPM1-promoter reporter in SK-MEL-5 – cell-based, luciferase, dry powder, set 8, MITF inhibitor project, dose response (AID 624430); format: functional
[36] = MITF: Counter assay: A375 proliferation Measured in Cell-Based System Using Plate Reader - 2084-03_Inhibitor_Dose_DryPowder_Activity_Set8.; format: functional; details: A-375
[37] = viability of PTEN-deleted HCT116 cells – cell-based, HCT116 PTEN knockout, dose response (AID 1047); format: functional;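 also: HCT116 colon tumor cells with PTEN knocked out; cells exposed to compound for 60 hours before readout; potency for loss of cell viability measured by luminescence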
[38] = viability of HCT116 lacking mutant beta-catenin – cell-based, human colon tumor, dose response (AID 1045); format: functional;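 also: HCT116 colon tumor cells with beta catenin knocked out; cells exposed to compound for 60 hours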
[39] = Dd2 parasite growth inhibition in erythrocytes – SYBR Green, dry powder samples, set 9, dose response (AID 1159568); format: functional, cell-based

## Nc1c2c(nc3sc4c(c13)CCCC4)-c1ccccc1CC2
[1]
  EC50: > 67.5 µM (inactive)
[2]
  EC50: > 67.5 µM (inactive)
[3]
  CC50: > 40 µM (active)

## O=C(COc1ccccc1Cl)NC(=S)Nc1ccccc1N1CCCC1
[4]
  EC50: 1.56 µM (active)

## Clc1ccc2[nH]c3c(c2c1)CCc1c[nH]nc1-3
[5]
  EC50: 15 µM (active)
[6]
  AC50: 0.129 µM (active)
[7]
  EC50: 18.1 µM (active)
[8]
  IC50: 2.16 µM (active)
[9]
  AC50: 7.8 µM (active)

## CC(=O)Nc1cccc(-c2nc3ccccc3c(=O)o2)c1
[8]
  IC50: 41.9 µM (not active)

## O=C(NCCCn1ccnc1)c1cc(-c2ccccc2)on1
[10]
  EC50: 8.67 µM (active)
[11]
  EC50: > 67.5 µM (inactive)
[12]
  EC50: > 350 µM (not active)

## COc1ccc2ncc(OC(C)=O)cc2c1
[13]
  IC50: > 100 µM (active)
[14]
  IC50: 3.24 µM (active)

## COC(=O)C1C(c2ccccc2)C(C(=O)OCc2ccco2)C1c1ccccc1 (stereo not given)
[15]
  EC50: > 53 µM (inactive)
[16]
  CC50: 30.1 µM (active)
[17]
  IC50: > 47.1 µM (inactive)

## COc1ccc(Nc2nc(N)nc(CSC(=S)N3CCN(C)CC3)n2)cc1
[18]
  IC50: > 67.6 µM (inactive)
[19]
  EC50: > 67.6 µM (inactive)

## Cc1cccc(C(=O)/N=c2/c(C#N)cc3c(=O)n4cccc(C)c4nc3n2Cc2ccco2)c1
[20]
  EC50: 65.6 µM (inactive)

## Cc1cc(O)ccc1Nc1cc(-c2cccc(N(C)C)c2)ncn1
[11]
  EC50: > 67.5 µM (inactive)

## Cc1ccc(-c2nc3cc(C)ccc3o2)cc1
[1]
  EC50: > 67.5 µM (inactive)
[21]
  EC50: 1.59 µM (active)
[2]
  EC50: > 67.5 µM (inactive)
[22]
  EC50: > 50 µM (not active)

## Cc1noc(C)c1S(=O)(=O)N(C)C[C@H]1OCCCC[C@@H](C)Oc2ccc(NS(=O)(=O)c3ccc(Cl)cc3)cc2C(=O)N([C@@H](C)CO)C[C@H]1C
[23]
  AC50: < 0.26 µM (active)
[24]
  AC50: 10.9 µM (active)

## C[C@@H]1CCCCO[C@@H](CN(C)Cc2ccc(C(F)(F)F)cc2)[C@H](C)CN([C@H](C)CO)C(=O)c2cc(NC(=O)Nc3ccccc3)ccc2O1
[25]
  AC50: 28.1 µM (active)
[26]
  AC50: 36 µM (active)
[23]
  AC50: 57 µM (active)
[24]
  AC50: 4.86 µM (active)

## C[C@@H]1CN([C@@H](C)CO)C(=O)c2cc(NS(=O)(=O)c3ccc(F)cc3)ccc2O[C@@H](C)CCCCO[C@H]1CN(C)S(=O)(=O)c1ccc(F)cc1
[27]
  AC50: > 52 µM (inactive)
[28]
  AC50: 22.5 µM (active)
[29]
  AC50: 22.5 µM (active)

## C[C@@H]1CN([C@H](C)CO)C(=O)c2cc(NC(=O)Cc3ccccc3)ccc2O[C@@H](C)CCCCO[C@@H]1CN(C)Cc1ccc(C(F)(F)F)cc1
[25]
  AC50: 17.5 µM (active)
[26]
  AC50: 43.2 µM (active)
[24]
  AC50: 7.22 µM (active)

## N#Cc1cccnc1N1CCN(C(=O)N(CC2CC2)c2ccc(Cl)cc2)CC1
[30]
  IC50: 0.0806 µM (active)
[31]
  IC50: > 50 µM (inactive)
[32]
  IC50: > 50 µM (inactive)
[33]
  IC50: > 50 µM (inactive)

## O=C1C=C(Nc2cc(Cl)cc(Cl)c2)C(=O)c2ccccc21
[34]
  AC50: 1.12 µM (active)
[35]
  AC50: 23.9 µM (active)
[36]
  AC50: 24 µM (active)

## Cc1cccnc1N1CCC(C(=O)N(CC2CC2)c2ccc(Cl)cc2)CC1
[30]
  IC50: 0.0075 µM (active)
[31]
  IC50: 2.6 µM (active)
[32]
  IC50: 15.7 µM (inactive)
[33]
  IC50: 12.6 µM (inactive)

## C=CCn1/c(=N/C(=O)c2ccc(S(=O)(=O)N3CCc4ccccc4C3)cc2)sc2cc(S(N)(=O)=O)ccc21
[37]
  EC50: 5.77 µM (active)
[20]
  EC50: > 69.5 µM (inactive)
[38]
  EC50: 4.56 µM (active)

## COc1ccc(/N=C2/C(=O)N3CCCc4cccc2c43)cc1
[10]
  EC50: > 350 µM (not active)
[12]
  EC50: > 350 µM (not active)
[13]
  IC50: > 100 µM (active)

## COc1ccccc1-c1ccc2c(c1)[C@@H]1[C@@H](CCN1C(=O)C1CCC1)[C@H](CO)N2
[39]
  AC50: 2.92 µM (active)

## CCCNC(=O)N1[C@H](C#N)[C@H](c2ccccc2C2=CCCCC2)[C@@H]1CO
[39]
  AC50: 7.06 µM (active)

## O=C1C(Nc2ccc(I)cc2)=C(N2CCCCC2)C(=O)c2ccccc21
[34]
  AC50: 15.9 µM (active)
[35]
  AC50: 9.62 µM (active)
[36]
  AC50: > 70 µM (inactive)
